# Measurements taken from publication PMC7403315, “Cyclic peptide FXII inhibitor provides safe anticoagulation in a thrombosis model and in artificial lungs” (Nature Communications, 2020).
# Several values for one entry are separate records, joined by “and”; a condition that tells them apart may be missing. Equal entries are not always repeated. Starred links: 1 amine or outer side, 2 acyl side, 3 side chain; linkers in the order of their positions; H or OH if unused. Positions of bridges follow the written chain, without caps; N, C: chain ends. Non-standard residues stand in square brackets, D forms with d. Residues, ends and D or L forms follow the SMILES beside them. TATA = O=C(CC[*:1])N1CN(C(=O)CC[*:2])CN(C(=O)CC[*:3])C1; Phe(4-F) = N[C@@H](Cc1ccc(F)cc1)C(=O)O; β3hR = N=C(N)NCCC[C@H](N)CC(=O)O
# Columns and labels:
# Type in all cases: biochemical
# human β-FXIIa = target: T1, human β-FXIIa (Homo sapiens, UniProt P00748); experiment: FXIIa protease inhibition assay with fluorogenic substrate Boc-Gln-Gly-Arg-AMC
# T1 construct: human β-FXIIa (Molecular Innovations cat #); purchased Molecular Innovations HFXIIAB; host or cells: human blood
# Experimental: (§1) In order to test the inhibitory activity of peptides without prior purification, we developed the following method. […] After solid-phase peptide synthesis, cleavage, and ether precipitation, the peptides were chemically cyclized and their Ki values were determined in a FXIIa activity assay using a fluorogenic substrate.
# (§2) Protease inhibition assays
# (§3) The inhibitory activity of peptides was determined by measuring the residual protease activity with a fluorogenic substrate. The assay was performed in buffer containing 10 mM Tris-Cl, pH […]
# (§4) 1% (v/v) DMSO in a volume of 150 µl. FXIIa activity was measured with the fluorogenic substrate Boc-Gln-Gly-Arg-AMC (Bachem) at a final concentration of 50 µM. Mouse α-FXIIa (Molecular Innovations cat # MFXIIA) and human β-FXIIa (Molecular Innovations cat # HFXIIAB) were used at final concentrations of 0.4 nM. The reaction was pipetted as follows: 50 µl of bicyclic peptide in assay buffer were added to 50 µl of FXIIa in assay buffer and incubated for 10 minutes at 25°C before 50 µl of 150 µM fluorogenic substrate in assay buffer were added to measure the residual protease activity with an Infinite M200Pro fluorescence plate reader (excitation at 368 nm, emission at 467 nm; Tecan) for a period of 30 minutes with a read every minute at 25°C. The Tecan software i-control (version 1.1) was used for data analysis. Stock solutions of 1 mM bicyclic peptide were prepared by either dissolving the unpurified cyclization reaction with water or by dissolving purified and lyophilized peptide in water. The bicyclic peptides were serially diluted two-fold using assay buffer. Sigmoidal curves were fitted to the data using the following dose response equation (1), wherein x = peptide concentration, y = % protease activity, and p = Hill slope. IC50 values were derived from the fitted curve.
# (§5) The inhibition constants (Ki) were calculated according to the equation of Cheng and Prusoff, Ki = IC50/(1+([S]0/Km), wherein IC50 is the functional strength of the inhibitor, [S]0 is the total substrate concentration, and Km is the Michaelis-Menten constant. […]
# (§6) the substrate Boc-Gln-Gly-Arg-AMC. […]
# Mouse α-FXIIa = target: T2, Mouse α-FXIIa (Mus musculus, UniProt Q80YC5); experiment: as above
# T2 construct: Mouse α-FXIIa; purchased Molecular Innovations MFXIIA
# T2 sequence (Q80YC5 355-597 limits assumed): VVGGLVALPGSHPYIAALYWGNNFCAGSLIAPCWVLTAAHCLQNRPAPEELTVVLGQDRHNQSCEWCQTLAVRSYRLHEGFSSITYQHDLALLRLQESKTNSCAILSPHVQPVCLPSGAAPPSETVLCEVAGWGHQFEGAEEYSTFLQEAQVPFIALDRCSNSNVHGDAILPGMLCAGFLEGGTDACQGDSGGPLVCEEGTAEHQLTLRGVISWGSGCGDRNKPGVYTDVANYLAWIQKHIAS
# T2 sequence (Q80YC5 20-354 limits assumed): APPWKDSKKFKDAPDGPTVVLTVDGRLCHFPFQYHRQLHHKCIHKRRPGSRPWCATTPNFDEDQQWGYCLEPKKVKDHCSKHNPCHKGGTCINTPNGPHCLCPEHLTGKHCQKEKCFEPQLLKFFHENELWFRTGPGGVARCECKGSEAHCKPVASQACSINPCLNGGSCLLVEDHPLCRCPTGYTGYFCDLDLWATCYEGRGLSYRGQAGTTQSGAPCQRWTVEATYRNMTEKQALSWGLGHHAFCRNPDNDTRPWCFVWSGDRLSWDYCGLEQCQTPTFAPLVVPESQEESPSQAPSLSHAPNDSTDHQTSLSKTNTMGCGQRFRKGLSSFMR
# Experimental: as §1, §2, §3, §4, §5, §6
# Recombinant mouse FXII = target: T3, Recombinant mouse FXII (Mus musculus, UniProt Q80YC5); experiment: Inhibition of recombinant FXIIa (rFXIIa); details: read-out: Residual activity (%), Recombinant mouse FXII, individual plates
# T3 sequence (Q80YC5 355-597 limits assumed): T2 sequence (Q80YC5 355-597 limits assumed)
# T3 sequence (Q80YC5 20-354 limits assumed): T2 sequence (Q80YC5 20-354 limits assumed)
# T1 sequence (P00748 373-615 limits assumed, other chains not shown): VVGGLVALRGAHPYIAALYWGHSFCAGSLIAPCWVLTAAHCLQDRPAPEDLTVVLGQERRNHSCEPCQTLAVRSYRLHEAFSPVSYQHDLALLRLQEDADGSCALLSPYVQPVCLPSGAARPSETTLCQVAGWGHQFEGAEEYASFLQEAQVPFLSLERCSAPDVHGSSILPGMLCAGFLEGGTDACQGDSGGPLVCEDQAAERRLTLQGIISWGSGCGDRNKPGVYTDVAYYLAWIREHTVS
compound,measurement,setting,value
CC(C)C[C@@H]1NC(=O)[C@H](CCC(N)=O)NC(=O)[C@H](Cc2c[nH]cn2)NC(=O)[C@@H]2CSCCC(=O)N3CN(CN(C3)C(=O)CCSC[C@H](NC(=O)[C@@H](CO)NC(=O)[C@H](N)CCCNC(=N)N)C(=O)N[C@@H](Cc3ccc(F)cc3)C(=O)N[C@@H](CCCNC(=N)N)C(=O)N[C@@H](CC(C)C)C(=O)N3CCC[C@H]3C(=O)N2)C(=O)CCSC[C@@H](C(N)=O)NC(=O)C[C@H](CCCNC(=N)N)NC1=O [FXII900] (H-[dR][dS]C[Phe(4-F)]RLPCHQL[β3hR]C-NH2; linker 3-8-13 via TATA),Ki,human β-FXIIa,0.37 ± 0.04 nM
same,Residual activity of human FXIIa,"human β-FXIIa; inhibitor 0.030518 nM, 30.52 pM",89.8015%
same,Residual activity of human FXIIa,"human β-FXIIa; inhibitor 0.03125 nM, 31.25 pM",91.2184% and 98.3306%
same,Residual activity of human FXIIa,"human β-FXIIa; inhibitor 0.061035 nM, 61.04 pM",87.3761%
same,Residual activity of human FXIIa,"human β-FXIIa; inhibitor 0.0625 nM, 62.5 pM",92.1225% and 95.5725%
same,Residual activity of human FXIIa,"human β-FXIIa; inhibitor 0.12207 nM, 0.00012207 µM",78.5763%
same,Residual activity of human FXIIa,"human β-FXIIa; inhibitor 0.125 nM, 0.000125 µM",82.8895% and 92.0812%
same,Residual activity of human FXIIa,"human β-FXIIa; inhibitor 0.244141 nM, 0.000244141 µM",65.9451%
same,Residual activity of human FXIIa,"human β-FXIIa; inhibitor 0.488281 nM, 0.000488281 µM",44.4485%
same,Residual activity of human FXIIa,"human β-FXIIa; inhibitor 0.5 nM, 0.0005 µM",54.1096% and 47.3759%
same,Residual activity of human FXIIa,"human β-FXIIa; inhibitor 1 nM, 0.001 µM",29.6346% and 29.527%
same,Residual activity of human FXIIa,"human β-FXIIa; inhibitor 1.95312 nM, 0.00195312 µM",9.983% and 4.833%
same,Residual activity of human FXIIa,"human β-FXIIa; inhibitor 2 nM, 0.002 µM",13.0658% and 11.4779%
same,Residual activity of human FXIIa,"human β-FXIIa; inhibitor 3.90625 nM, 0.00390625 µM",2.681% and 0.3074%
same,Residual activity of human FXIIa,"human β-FXIIa; inhibitor 4 nM, 0.004 µM",2.623% and 4.603% and 9.7%
same,Residual activity of human FXIIa,"human β-FXIIa; inhibitor 7.8125 nM, 0.0078125 µM",1.017% and -0.1178%
same,Residual activity of human FXIIa,"human β-FXIIa; inhibitor 8 nM, 0.008 µM",0.8848% and 2.033% and 3.493%
same,Residual activity of human FXIIa,"human β-FXIIa; inhibitor 15.625 nM, 0.015625 µM",1.594% and 0.3357%
same,Residual activity of human FXIIa,"human β-FXIIa; inhibitor 0.976562 / 0.976563 nM, 0.000976563 µM",20.4026%
same,remaining activity at 30.52 pM,"human β-FXIIa; read-out: Residual activity of human FXIIa, inhibitor 0.030518 nM",92.8%
same,remaining activity at 31.25 pM,"human β-FXIIa; read-out: Residual activity of human FXIIa, inhibitor 0.03125 nM",90.7%
same,remaining activity at 61.04 pM,"human β-FXIIa; read-out: Residual activity of human FXIIa, inhibitor 0.061035 nM",102%
same,remaining activity at 62.5 pM,"human β-FXIIa; read-out: Residual activity of human FXIIa, inhibitor 0.0625 nM",89.8%
same,remaining activity at 0.00012207 µM,"human β-FXIIa; read-out: Residual activity of human FXIIa, inhibitor 0.12207 nM",77.3%
same,remaining activity at 0.000125 µM,"human β-FXIIa; read-out: Residual activity of human FXIIa, inhibitor 0.125 nM",80.4%
same,remaining activity at 0.000244141 µM,"human β-FXIIa; read-out: Residual activity of human FXIIa, inhibitor 0.244141 nM",66.6%
same,remaining activity at 0.000488281 µM,"human β-FXIIa; read-out: Residual activity of human FXIIa, inhibitor 0.488281 nM",51.8%
same,remaining activity at 0.0005 µM,"human β-FXIIa; read-out: Residual activity of human FXIIa, inhibitor 0.5 nM",46.7%
same,remaining activity at 0.001 µM,"human β-FXIIa; read-out: Residual activity of human FXIIa, inhibitor 1 nM",24.6%
same,remaining activity at 0.002 µM,"human β-FXIIa; read-out: Residual activity of human FXIIa, inhibitor 2 nM",8.92%
same,remaining activity at 0.03125 µM,"human β-FXIIa; read-out: Residual activity of human FXIIa, inhibitor 31.25 nM",0%
same,remaining activity at 0.000976563 µM,"human β-FXIIa; read-out: Residual activity of human FXIIa, inhibitor 0.976562 / 0.976563 nM",29.9%
same,Ki,Mouse α-FXIIa,0.45 ± 0.11 nM
same,remaining activity at 30.52 pM,Recombinant mouse FXII; peptide 0.030518 nM,94.5%
same,remaining activity at 61.04 pM,Recombinant mouse FXII; peptide 0.061035 nM,95%
same,remaining activity at 0.00012207 µM,Recombinant mouse FXII; peptide 0.12207 nM,85.5%
same,remaining activity at 0.000244141 µM,Recombinant mouse FXII; peptide 0.244141 nM,77.6%
same,remaining activity at 0.000488281 µM,Recombinant mouse FXII; peptide 0.488281 nM,61.6%
same,remaining activity at 0.000976563 µM,Recombinant mouse FXII; peptide 0.976563 nM,37.8%
same,remaining activity at 0.00195312 µM,Recombinant mouse FXII; peptide 1.95312 nM,15.3%
same,remaining activity at 0.0078125 µM,Recombinant mouse FXII; peptide 7.8125 nM,0.768%
same,remaining activity at 0.015625 µM,Recombinant mouse FXII; peptide 15.625 nM,0%
same,remaining activity at 0.03125 µM,Recombinant mouse FXII; peptide 31.25 nM,0%
